What all share (format): functional
Test [1] has as its system NCI-H1792. In words: Cytotoxicity against human NCI-H1792 cells harboring KRAS G12C mutant assessed as reduction in cell viability measured after 72 hrs by CellTiter-Glo luciferase-based ATP detection assay. Conditions: NCI-H1792, 72 h.
In test [2] the test system is NCI-H2122. In words: Cytotoxicity against human NCI-H2122 cells harboring KRAS G12C mutant assessed as reduction in cell viability measured after 72 hrs by CellTiter-Glo luciferase-based ATP detection assay. To be noted: NCI-H2122, 72 h. Background: ATP-based viability assays read luminescence as a measure of living cells.
Test [3] deals with NCI-H23. In words: Cytotoxicity against human NCI-H23 cells harboring KRAS G12C mutant assessed as reduction in cell viability measured after 72 hrs by CellTiter-Glo luciferase-based ATP detection assay. To be noted: NCI-H23, 72 h.
For test [4], the system named is NCI-H1373. In words: Cytotoxicity against human NCI-H1373 cells harboring KRAS G12C mutant assessed as reduction in cell viability measured after 72 hrs by CellTiter-Glo luciferase-based ATP detection assay. To be noted: NCI-H1373, 72 h.
The test system of test [5] is NCI-H358. In words: Cytotoxicity against human NCI-H358 cells harboring KRAS G12C mutant assessed as reduction in cell viability measured after 72 hrs by CellTiter-Glo luciferase-based ATP detection assay. Conditions: NCI-H358, 72 h.
For test [6], the system named is NCI-H1373. In words: Cytotoxicity against human NCI-H1373 cells harboring KRASG12C mutant assessed as reduction in cell viability measured after 72 hrs in presence of compound 1 by CellTiter-Glo luciferase-based ATP detection assay. Conditions: NCI-H1373, 72 h.
The test system of test [7] is NCI-H2122. In words: Cytotoxicity against human NCI-H2122 cells harboring KRASG12C mutant assessed as reduction in cell viability measured after 72 hrs in presence of compound 1 by CellTiter-Glo luciferase-based ATP detection assay. Conditions: NCI-H2122, 72 h.
The test system of test [8] is NCI-H23. In words: Cytotoxicity against human NCI-H23 cells harboring KRASG12C mutant assessed as reduction in cell viability measured after 72 hrs in presence of compound 1 by CellTiter-Glo luciferase-based ATP detection assay. Conditions: NCI-H23, 72 h.
The subject of test [9] is NCI-H1792. In words: Cytotoxicity against human NCI-H1792 cells harboring KRASG12C mutant assessed as reduction in cell viability measured after 72 hrs in presence of compound 1 by CellTiter-Glo luciferase-based ATP detection assay. To be noted: NCI-H1792, 72 h.
Test [10] has as its system NCI-H358. In words: Cytotoxicity against human NCI-H358 cells harboring KRASG12C mutant assessed as reduction in cell viability measured after 72 hrs in presence of compound 1 by CellTiter-Glo luciferase-based ATP detection assay. To be noted: NCI-H358, 72 h.

In ChEMBL document CHEMBL4825770, “KRAS Mutant Combination Therapy for the Effective Treatment of Cancer” (ACS Med Chem Lett, 2021) one finds IC50 data, which are given here for 2 molecules.

For orientation: IC50 means the concentration that gives 50% inhibition. `C[C@H]1CNC(=O)c2cnn3ccc(nc23)N[C@H](C)c2cc(F)ccc2O1` [REPOTRECTINIB]: the half-inhibitory concentration (IC50) in the test on NCI-H1792 [1] worked out at 1900 nM; with NCI-H2122 [2], 1940 nM; in the test with NCI-H23 [3] it was 4060 nM; with NCI-H1373 [4], 5000 nM; in the test on NCI-H358 [5] it was 2500 nM.

For `C=CC(=O)N1CCN(c2nc(=O)n(-c3c(C)ccnc3C(C)C)c3nc(-c4c(O)cccc4F)c(F)cc23)[C@@H](C)C1` [SOTORASIB], the half-maximal inhibitory concentration (IC50) was greater than 10000 nM with NCI-H1792 [1]; greater than 10000 nM in the test with NCI-H23 [3]; 356 nM in the test with NCI-H1373 [6]; 90.5 nM in the test with NCI-H2122 [7]; greater than 10000 nM in the test on NCI-H1373 [4]; 213 nM in the test with NCI-H358 [5]. Further, the figures for the IC50 with NCI-H23 [8], in the test with NCI-H1792 [9] and in the test with NCI-H358 [10] were 1500 nM, 3000 nM and 3 nM, respectively.
